According to ChEMBL document CHEMBL3046463, “Antihepatotoxic, nephroprotective, and antioxidant activities of phenolic compounds from Satureja macrostema leaves against carbon tetrachloride-induced hepatic damage in mice” (Med Chem Res, 2013):
≈ marks a conversion by molar mass, not a printed value.

Legend:
Type in all cases: functional
Mus musculus [1] = experiment: Nephroprotective activity in CD1 Mus musculus (mouse) assessed as reduction of CCl4-induced plasma creatinine level at 20 mg/kg, po administered 30 min before and 3 hr after CCl4 challenge measured 48 hr post CCl4 challenge (reference value: 1.2 +/- 0.006 mg/dl)
Mus musculus [2] = experiment: Nephroprotective activity in CD1 Mus musculus (mouse) assessed as reduction of CCl4-induced plasma urea level at 20 mg/kg, po administered 30 min before and 3 hr after CCl4 challenge measured 48 hr post CCl4 challenge (reference value: 61.56 +/- 3.46 mg/dl)
[3] = Antioxidant activity assessed as inhibition of H2O2/Fe2+-induced radical generation
[4] = test system: Radical scavenging activity; experiment: Antioxidant activity assessed as DPPH free radical scavenging activity
Mus musculus [5] = experiment: Hepatoprotective activity in CD1 Mus musculus (mouse) intoxicated with CCl4 assessed as increase in total protein level in serum at 20 mg/kg, po administered 30 min before and 3 hr after CCl4 challenge measured 48 hr post CCl4 challenge (reference value: 61.80 +/- 5.48 g/l)
Mus musculus [6] = experiment: Hepatoprotective activity in CD1 Mus musculus (mouse) assessed as reduction of CCl4-induced total cholesterol level in serum at 20 mg/kg, po administered 30 min before and 3 hr after CCl4 challenge measured 48 hr post CCl4 challenge (reference value: 172.57 +/- 4.36 md/dl)
Mus musculus [7] = experiment: Hepatoprotective activity in CD1 Mus musculus (mouse) assessed as reduction of CCl4-induced serum alkaline phosphatase level at 20 mg/kg, po administered 30 min before and 3 hr after CCl4 challenge measured 48 hr post CCl4 challenge (reference value: 239.1 +/- 5.98 IU/l)
Mus musculus [8] = experiment: Hepatoprotective activity in CD1 Mus musculus (mouse) assessed as reduction of CCl4-induced serum aspartate aminotransferase level at 20 mg/kg, po administered 30 min before and 3 hr after CCl4 challenge measured 48 hr post CCl4 challenge (reference value: 487.3 +/- 6.21 IU/l)
Mus musculus [9] = experiment: Hepatoprotective activity in CD1 Mus musculus (mouse) assessed as reduction of CCl4-induced serum alanine aminotransferase level at 20 mg/kg, po administered 30 min before and 3 hr after CCl4 challenge measured 48 hr post CCl4 challenge (reference value: 296 +/- 7.93 IU/l)
[10] = Antioxidant activity assessed as superoxide radical scavenging activity

Compound | Activity (Mus musculus [1]) [mg/dL] | Activity (Mus musculus [2]) [mg/dL] | IC50 [3] [µg/mL] | IC50 [4] [µg/mL] | Activity (Mus musculus [5]) [g/L] | Activity (Mus musculus [6]) [mg/dL] | Activity (Mus musculus [7]) [IU/L] | Activity (Mus musculus [8]) [IU/L] | Activity (Mus musculus [9]) [IU/L] | IC50 [10] [µg/mL]
C[C@H]1O[C@@H](Oc2cc(O)c3c(c2)O[C@H](c2cc(O)c(O)c(O)c2)CC3=O)[C@@H](O)[C@@H](O)[C@@H]1O | 0.76 | 51.1 | 18.2 (≈ 40.4 µM) | 9.3 (≈ 20.6 µM) | 76.1 | 124.34 | 118.1 | 145.7 | 103.4 | 25.8 (≈ 57.3 µM)
COc1ccc([C@@H]2CC(=O)c3c(OC)cc(O[C@@H]4O[C@H](C)[C@@H](O)[C@H](O)[C@@H]4O)cc3O2)cc1O | 0.69 | 46.62 | 32.7 (≈ 70.7 µM) | 21.4 (≈ 46.3 µM) | 70.24 | 140.13 | 149.6 | 200.6 | 143.6 | 39.76 (≈ 86 µM)
COc1ccc(-c2oc3cc(O[C@@H]4O[C@H](CO)[C@@H](O)[C@H](O[C@@H]5O[C@@H](C)[C@H](O)[C@@H](O)[C@H]5O)[C@H]4O)c(OC)c(O)c3c(=O)c2OC)cc1 | 0.67 | 44.78 | 36.42 (≈ 55.8 µM) | 24.8 (≈ 38 µM) | 68.23 | 143.28 | 156.5 | 219.4 | 152.4 | 43.12 (≈ 66.1 µM)
COc1c(O)cc([C@H]2Oc3cc(O)cc(O)c3C(=O)[C@@H]2O[C@@H]2O[C@H](C)[C@@H](O)[C@H](O)[C@@H]2O[C@@H]2O[C@H](C)[C@@H](O)[C@H](O)[C@@H]2O)cc1O | 0.74 | 49.43 | 22.4 (≈ 35.8 µM) | 17.5 (≈ 27.9 µM) | 74.76 | 129.31 | 128.3 | 161.6 | 115.1 | 30.4 (≈ 48.5 µM)
COc1cc(O)cc2c1C(=O)[C@H](O[C@@H]1O[C@H](C)[C@@H](O)[C@H](O)[C@@H]1O)[C@@H](c1cc(O)c(OC)c(O)c1)O2 | 0.71 | 47.26 | 26.7 (≈ 54 µM) | 11.6 (≈ 23.5 µM) | 71.57 | 136.8 | 137.5 | 189.4 | 124.2 | 35.2 (≈ 71.2 µM)
O=c1c(O)c(-c2ccc(O)c(O)c2)oc2cc(O)cc(O)c12 [QUERCETIN] | – | – | 14.6 (≈ 48.3 µM) | 8.2 (≈ 27.1 µM) | – | – | – | – | – | 20.1 (≈ 66.5 µM)
